Reference: ChEMBL document CHEMBL1128931, “Synthesis and biological evaluation of pyrido[2,3-b]pyrazine and pyrido[2,3-b]pyrazine-n-oxide as selective glycine antagonists” (Bioorg Med Chem Lett, 1996)

Tests used:
[1] = molecular target: Glutamate receptor ionotropic, NMDA 1 (Rattus norvegicus, UniProt P35439); experiment: In vitro binding affinity for glycine site on the NMDA receptor.
Rattus norvegicus [2] = experiment: Compound was evaluated in vivo for antagonistic activity against glycine site in NMDA induced convulsion model in rats after iv administration.; type: functional
Rattus norvegicus [3] = experiment: Compound was evaluated in vivo for antagonistic activity against glycine site in NMDA induced convulsion model in rats after ip administration.; type: functional

Row | Compound | Ki [1] [nM] | ED50 (Rattus norvegicus [2]) [mg/kg] | ED50 (Rattus norvegicus [3]) [mg/kg]
1 | Oc1nc2nc(Cl)c(Cl)c(Cl)c2nc1O | 110 | – | –
2 | [O-][n+]1c(Cl)c(Cl)cc2nc(O)c(O)nc21 | 112 | 14 | 24
3 | Cc1c(Br)c(Cl)[n+]([O-])c2nc(O)c(O)nc12 | 3020 | – | –
4 | Cc1c(Cl)c(Cl)[n+]([O-])c2nc(O)c(O)nc12 | 3160 | – | 30
5 | [O-][n+]1c(Cl)c(Br)cc2nc(O)c(O)nc21 | 112 | 18 | 45
6 | Cc1c(Cl)c[n+]([O-])c2nc(O)c(O)nc12 | 372 | 3 | 7
7 | CCCc1nc2nc(O)c(O)nc2c(C)c1Cl | 2750 | – | –
8 | [O-][n+]1cc(I)cc2nc(O)c(O)nc21 | 741 | – | 21
9 | [O-][n+]1cc(C(F)(F)F)cc2nc(O)c(O)nc21 | 427 | 15 | –
10 | Cc1c(I)c[n+]([O-])c2nc(O)c(O)nc12 | 912 | – | 30
11 | [O-][n+]1cc(C(F)(F)F)c(Cl)c2nc(O)c(O)nc21 | 3720 | – | 50
12 | Cc1c(Br)c[n+]([O-])c2nc(O)c(O)nc12 | 537 | 5 | 9
13 | [O-][n+]1cc(Cl)cc2nc(O)c(O)nc21 | 513 | – | –
14 | [O-][n+]1c(Cl)ccc2nc(O)c(O)nc21 | 4680 | – | –
15 | Oc1nc2ncc(C(F)(F)F)c(Cl)c2nc1O | 1580 | – | –
16 | Cc1c(Cl)c(Cl)nc2nc(O)c(O)nc12 | 191 | – | –
17 | Oc1nc2cc(Br)c(Cl)nc2nc1O | – | 20 | 100
18 | CCCc1c(Cl)cc2nc(O)c(O)nc2[n+]1[O-] | 457 | – | –
19 | [O-][n+]1c(Cl)c(C(F)(F)F)cc2nc(O)c(O)nc21 | 513 | 30 | 60

Second part, led by results:

Row | Ki [1] [nM] | Compound | ED50 (Rattus norvegicus [2]) [mg/kg] | ED50 (Rattus norvegicus [3]) [mg/kg]
20 | 6170 | Oc1nc2ccc(Cl)nc2nc1O | – | –
21 | 427 | Oc1nc2cc(C(F)(F)F)c(Cl)nc2nc1O | 15 | –
22 | 282 | Cc1c(Br)c(Cl)nc2nc(O)c(O)nc12 | 10 | –
23 | 1580 | Cc1c(Br)cnc2nc(O)c(O)nc12 | – | –
24 | 204 | Oc1nc2cc(I)c(Cl)nc2nc1O | – | –
25 | 224 | Cc1c(I)cc2nc(O)c(O)nc2[n+]1[O-] | – | –
26 | 1780 | Cc1c(I)cnc2nc(O)c(O)nc12 | – | –
27 | 2880 | Cc1c(Cl)cnc2nc(O)c(O)nc12 | – | 20
28 | 468 | Cc1nc2nc(O)c(O)nc2cc1I | – | –
29 | 813 | Cc1nc2nc(O)c(O)nc2c(C)c1Cl | – | –
30 | 186 | Oc1nc2cc(Cl)c(Cl)nc2nc1O | 0.7 | 41
31 | 501 | Oc1nc2cc(C(F)(F)F)cnc2nc1O | 13 | 27
32 | 209 | [O-][n+]1c(Cl)c(I)cc2nc(O)c(O)nc21 | – | –
33 | 1510 | CCCc1nc2nc(O)c(O)nc2cc1Cl | – | –
